“And” between values parts separate entries of the source, which are not always exact repeats. Equal values may be shown once.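 1) Cells in 96-well plates. 2) Compound, 48 h, 5 concentrations. 3) Linear interpolation between surrounding doses. 4) Unreached endpoint = highest concentration. Here, GI50 denotes the concentration required for 50% inhibition of growth. Definition used: TGI = concentration required for complete inhibition of growth.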
How the values were obtained:
Experiment in all cases: NCI-60 cell line screen, 48 h
EKVX NSCLC = test system: EKVX NSCLC
HCC-2998 colon = test system: HCC-2998 colon
SK-MEL-5 melanoma = test system: SK-MEL-5 melanoma
OVCAR-3 ovarian = test system: OVCAR-3 ovarian
786-0 renal = test system: 786-0 renal
UACC-257 melanoma = test system: UACC-257 melanoma
TK-10 renal = test system: TK-10 renal
IGROV1 ovarian = test system: IGROV1 ovarian
SF-268 CNS = test system: SF-268 CNS
HCT-15 colon = test system: HCT-15 colon

SMILES | GI50 (EKVX NSCLC) | GI50 (HCC-2998 colon) | TGI (HCC-2998 colon) | TGI (SK-MEL-5 melanoma) | GI50 (OVCAR-3 ovarian) | TGI (OVCAR-3 ovarian) | TGI (786-0 renal) | GI50 (UACC-257 melanoma) | TGI (UACC-257 melanoma) | TGI (TK-10 renal) | GI50 (IGROV1 ovarian) | TGI (IGROV1 ovarian) | GI50 (SF-268 CNS) | TGI (SF-268 CNS) | GI50 (HCT-15 colon) | TGI (HCT-15 colon) | TGI (EKVX NSCLC) | GI50 (SK-MEL-5 melanoma) | GI50 (786-0 renal) | GI50 (TK-10 renal)
CC[C@](C)(O)C(=O)O[C@H]1C(=O)O[C@@H]2C[C@H]3C(C)=CC(=O)[C@@H](O)[C@]3(C)[C@H]3[C@@]4(O)OC[C@]32[C@@H]1[C@@H](C)[C@H]4O | 1610 nM | 120 nM | 469 nM and 316 nM | 136 nM | 387 nM | 502 nM and 1620 nM | 832 nM | 142 nM | 841 nM and 218 nM | 9390 nM | 73.6 nM | 544 nM and 274 nM | 155 nM | 633 nM and 226 nM | 214 nM | 874 nM and 533 nM | – | – | – | –
CC12CCC=CC1CCC1C2CCC2(C)C(c3ccc(=O)oc3)CCC12O (stereo unspecified) | 63.6 nM | 342 nM | 3420 nM | 238 nM | 61.4 nM | 258 nM | 357 nM | 255 nM | 994 nM | 499 nM | 68.8 nM | 1360 nM | 41 nM | 253 nM | 92.3 nM | 428 nM | 193 nM | 45.3 nM | 61.8 nM | 47.9 nM
CS(=O)(=O)CC1=Nc2nnc(CCCCCCCc3nnc4n3C(=O)C(CS(C)(=O)=O)=N4)n2C1=O | – | – | > 100000 nM | > 100000 nM | – | > 100000 nM | > 100000 nM | – | > 100000 nM | > 100000 nM | – | > 100000 nM | – | > 100000 nM | – | > 100000 nM | > 100000 nM | – | – | –
C=C1C(=O)O[C@@H]2C1CC(=O)C(C)CC/C=C(\C)CCC[C@H](C)[C@H]2OC(C)=O (stereo partly specified) | 16300 nM | 15600 nM | 29900 nM | 23600 nM | 10200 nM | 21800 nM | 32200 nM | 18400 nM | 36600 nM | 8430 nM | 10100 nM | 26300 nM | 20500 nM | 41300 nM | 13700 nM | 30400 nM | 31500 nM | 11500 nM | 17000 nM | 1790 nM
c1ccc2nc(Cn3c[n+](Cc4ccc5ccccc5n4)c4ccccc43)ccc2c1 | 5700 nM | 2760 nM | 13600 nM | 2800 nM | 1600 nM | 4990 nM | 16400 nM | 2020 nM | 5330 nM | 13300 nM | 1650 nM | 8270 nM | 2970 nM | 14200 nM | 15100 nM | 32600 nM | 23700 nM | 1450 nM | 4200 nM | 3490 nM
N=C(N)c1nn(C2OC(CO)C(O)C2O)c2nc[nH]c(=O)c12 (stereo unspecified) | 493 nM | 849 nM | 3370 nM | 1530 nM | 836 nM | 2900 nM | 4610 nM | 292 nM | 1290 nM | 2170 nM | 1190 nM | 3810 nM | 445 nM | 3040 nM | 587 nM | 5710 nM | 3950 nM | 444 nM | 642 nM | 363 nM
CCCC(O)[C@@H](O)c1ccc2c(c1O)C(=O)c1c(OC)cccc1C2=O (stereo partly specified) | – | – | 68100 nM | 31200 nM | – | > 100000 nM | > 100000 nM | – | 68800 nM | > 100000 nM | – | > 100000 nM | – | > 100000 nM | – | 82500 nM | > 100000 nM | – | – | –

— PubChem BioAssay (NCI)
